Source: BindingDB's records for doi:10.1021/jm00121a012 (Takeda Chemical Industries, 1989)

Target: Platelet-activating factor receptor (Oryctolagus cuniculus)
Assay: Inhibition of rabbit platelet aggregation induced by platelet activating factor (PAF)

SMILES	IC50 [µM]
CCCCCCCCCCCCCCCCCCNC(=O)OCC(COC(=O)N(CC[N+](C)(C)C)C(=O)CC)OC (stereo not drawn)	5.6
CCCCCCCCCCCCCCCCCCNC(=O)OCC(COC(=O)N(Cc1cccc[n+]1CCC)C(C)=O)OC (stereo not drawn)	0.094
CCCCCCCCCCCCCCCCCCNC(=O)OCC(COC(=O)N(CC[N+](C)(C)C)C(=O)N(C)C)OC (stereo not drawn)	5.8
CCCCCCCCCCCCCCCCCCNC(=O)OCC(COC(=O)N(CC[N+](C)(C)C)C(=O)CCC)OC (stereo not drawn)	7.8
CCCCCCCCCCCCCCCCCCNC(=O)OCC(COC(=O)N(Cc1csc[n+]1CC)C(C)=O)OC (stereo not drawn)	0.092
CCCCCCCCCCCCCCCCCCNC(=O)OCC(COC(=O)N(Cc1cccc[n+]1C)C(C)=O)OC (stereo not drawn)	0.2
CCCCCCCCCCCCCCCCCCOCC(COC(=O)NCC[N+](C)(C)C)OC(C)=O (stereo not drawn)	8.4
CCCCCCCCCCCCCCCCCCNC(=O)OCC(COC(=O)N(CC[N+](C)(C)C)C(C)=O)OC (stereo not drawn)	1.5
CCCCCCCCCCCCCCCCCCNC(=O)OCC(COC(=O)N(CC[N+]1(C)CCCC1)C(C)=O)OC (stereo not drawn)	1.1
CCCCCCCCCCCCCCCCCCNC(=O)OCC(COC(=O)N(C)CC[N+](C)(C)C)OC (stereo not drawn)	8.2
CCCCCCCCCCCCCCCCCCOCC(COC(=O)N(CC[N+](C)(C)C)C(C)=O)OC(C)=O (stereo not drawn)	0.88
CCCCCCCCCCCCCCCCCCNC(=O)OCC(COC(=O)N(CC[N+](C)(C)C)C(=O)OC)OC (stereo not drawn)	2.3
CCCCCCCCCCCCCCCCCCNC(=O)OCC(COC(=O)NCC[N+](C)(C)C)OC (stereo not drawn)	14
CCCCCCCCCCCCCCCCCCNC(=O)OCC(COC(=O)N(CC[N+]1(C)CCOCC1)C(C)=O)OC (stereo not drawn)	9.2
CCCCCCCCCCCCCCCCCCNC(=O)OCC(COC(=O)N(CC[N+](C)(C)C)C(=O)N1CCCC1)OC (stereo not drawn)	8.6
CCCCCCCCCCCCCCCCCCNC(=O)OCC(COC(=O)N(Cc1csc[n+]1C)C(C)=O)OC (stereo not drawn)	0.1
CCCCCCCCCCCCCCCCCCNC(=O)OCC(COC(=O)N(CC[N+](C)(C)C)C(=O)NCCC)OC (stereo not drawn)	> 30
CCCCCCCCCCCCCCCCCCNC(=O)OCC(COC(=O)N(CCC[N+](C)(C)C)C(C)=O)OC (stereo not drawn)	8.5
